Reference: patent publication EP0592876A1, “Antimycotic dermatological and cosmetic compositions” (Beiersdorf Aktiengesellschaft, priority 1992, dated 1994)

System: Pityrosporum ovale
Experiment: agar diffusion inhibition-zone test (Hemmhof-Test)
Assay type: cell-based
Experimental: TY-Medium 10 g Trypton + 5 g Hefeextrakt + 10 g NaCl, aufgelöst in 1000 ml H₂O, gepuffert auf pH 7,4 , autoklaviert. Testverbindung 1: Polyoxyethylen-20-stearylether Testverbindung 2: Polyoxyethylen-20-isostearylalkohol Testverbindung 3: Polyoxyethylen-21-stearylalkohl Testverbindung 4: Polyoxyethylen-5-cetyl/stearylether Testverbindung 5: Polyoxyethylen-25-Fettalkohol Testverbindung 6: Polyoxyethylen-6-cetyl/stearylether Testverbindung 7: Polyoxyethylen-C₁₂-C₁₅-Alkylether Pityrosporum ovale, isoliert von drei Patienten mit Pityrosporum-Follikulitis, Pityriasis versicolor oder seborrhoischem Ekzem wurde in einer Mischung aus 50 % TY-Medium, 30 % Olivenöl und 20 % Tween 80 suspendiert. Die drei verschiedenen Hefestämme wurden in drei parallelen Ansätzen auf einer Selektivagarplatte für pathogene Pilze (Merck AG, Darmstadt) gleichmäßig ausgespatelt. Mit Hilfe steriler Korkbohrer wurden in jede Platte mehrere kreisrunde Vertiefungen gestanzt, In die Vertiefungen mit einem Durchmesser von 5 mm wurden jeweils 25 µl der Testlösungen gegeben. Die Testlösungen stellten 1%-ige und 10%-ige Lösungen der Testsubstanzen in Ethanol dar.
Nach dreistündiger Inkubation bei 37° C wurde das verdunstete Lösungsmittel durch je 25 µl Jojobaöl ersetzt und die Platten anschließend unter Beibehaltung der Wachstumsbedingungen drei Tage inkubiert. Während dieser Zeit diffundierten die Testsubstanzen in den die Vertiefungen umgebenden Nährboden.
Antimycotisch wirksame Testverbindungen zeigten nach dreitägiger Inkubation einen mehr oder weniger deutlichen konzentrischen Hemmhof um die Vertiefungen. Die Größe dieser Hemmhöfe, wiedergegeben in Tabelle 1, ist bei vergleichbarer Substanzkonzentration ein Maß für die antimycotische Wirksamkeit der Testverbindungen. Tabelle 1
Testverbindung 8 : Polyoxyethylen-[…]-Dodecylether Testverbindung 9 : Polyoxyethylen-20-Stearylether Testverbindung 10: Polyoxyethylen-20-isostearylalkohol Testverbindung 11: Polyoxyethylen-21-stearylalkohol Testverbindung 12: Polyoxyethylen-5-Cetyl/stearylether Testverbindung 13: Polyoxyethylen-25-Fettalkohol Testverbindung 14: Polyoxyethylen-6-Cetyl/Stearylether + Stearylalkohol Testverbindung 15: Polyoxyethylen-C₁₂-C₁₅-Alkylether Von den Testverbindungen 8 - 15 wurden ethanolische Lösungen der Konzentrationen 0,5 %, 1,0 %, 5,0 % und 10,0 % hergestellt und in den Hemmhof-Test eingeführt. Die Versuchsdurchführung entspricht in ihrem Ablaufe dem zu Versuch 1 geschilderten. Die Größe der betreffenden Hemmhöfe ist in Tabelle 2 wiedergegeben. Tabelle 2

[1] = Versuch 1, 1%-ige Lösung in Ethanol, 25 µl per 5 mm well, three days incubation at 37° C, three strains isolated from patients
[2] = Versuch 1, 10%-ige Lösung in Ethanol, 25 µl per 5 mm well, three days incubation at 37° C, three strains isolated from patients
[3] = Versuch 2, Konz. 0,5 % ethanolic solution, procedure as Versuch 1
[4] = Versuch 2, Konz. 1,0 % ethanolic solution, procedure as Versuch 1
[5] = Versuch 2, Konz. 5,0 % ethanolic solution, procedure as Versuch 1
[6] = Versuch 2, Konz. 10,0 % ethanolic solution, procedure as Versuch 1

| Substance | mittlerer Hemmhof-Durchmesser [1] | mittlerer Hemmhof-Durchmesser [2] | mittlerer Hemmhof-Durchmesser [3] | mittlerer Hemmhof-Durchmesser [4] | mittlerer Hemmhof-Durchmesser [5] | mittlerer Hemmhof-Durchmesser [6] |
| --- | --- | --- | --- | --- | --- | --- |
| Polyoxyethylen-21-stearylalkohl [Testlösung 3] | 7,0 mm | 11,0 mm |  |  |  |  |
| Polyoxyethylen-C₁₂-C₁₅-Alkylether [Testlösung 15] |  |  | 9,0 mm | 12,7 mm | 17,0 mm | 20,0 mm |
| Polyoxyethylen-6-cetyl/stearylether [Testlösung 6] | 9,5 mm | 14,0 mm |  |  |  |  |
| Polyoxyethylen-??-Dodecylether [Testlösung 8] |  |  | 14,0 mm | 15,5 mm | 18,0 mm | 20,7 mm |
| Polyoxyethylen-20-isostearylalkohol [Testlösung 10] |  |  | 9,0 mm | 9,0 mm | 15,0 mm | 17,3 mm |
| Polyoxyethylen-20-stearylether [Testlösung 1] | 10,0 mm | 15,5 mm |  |  |  |  |
| Polyoxyethylen-20-isostearylalkohol [Testlösung 2] | 11,0 mm | 12,0 mm |  |  |  |  |
| Polyoxyethylen-20-Stearylether [Testlösung 9] |  |  | 10,7 mm | 14,0 mm | 18,7 mm | 20,7 mm |
| Polyoxyethylen-5-Cetyl/stearylether [Testlösung 12] |  |  | 11,0 mm | 14,0 mm | 16,5 mm | 16,5 mm |
| Polyoxyethylen-25-Fettalkohol [Testlösung 13] |  |  | 10,0 mm | 11,5 mm | 15,7 mm | 18,3 mm |
| Polyoxyethylen-21-stearylalkohol [Testlösung 11] |  |  | 10,0 mm | 11,7 mm | 12,0 mm | 12,7 mm |
| Polyoxyethylen-5-cetyl/stearylether [Testlösung 4] | 8,5 mm | 9,5 mm |  |  |  |  |
| Polyoxyethylen-25-Fettalkohol [Testlösung 5] | 7,0 mm | 13,0 mm |  |  |  |  |
| Polyoxyethylen-C₁₂-C₁₅-Alkylether [Testlösung 7] | 9,5 mm | 15,0 mm |  |  |  |  |
